# From US6613879B1, “FAP-activated anti-tumour compounds” (Boehringer Ingelheim Pharma KG, priority 1999, dated 2003)
# Residues, ends and D or L forms follow the SMILES beside them. *: point of attachment. NH(4-MeO-2-naphthyl) = COc1cc(N*)cc2ccccc12; AFC = O=c1cc(C(F)(F)F)c2ccc(N*)cc2o1; Cbz = O=C(OCc1ccccc1)*
# Assays:
# [1] = molecular target: T1, soluble recombinant FAPα (FAPmCD8 fusion protein) (UniProt P01731+Q12884); assay: Cleavage of doxorubicin-peptide conjugates by soluble recombinant FAPα (HPLC release of free doxorubicin); type: biochemical, human; conditions: for Cleavage by FAP: after 20 h
# T1 construct: the extracellular domain of FAPα (amino acids 27 to 760), generating a fusion protein construct, FAPmCD8; extracellular domain of murine CD8α (Genbank M12825), N-terminal 189 amino acids (N); made in house; host or cells: High Five insect cells, recombinant baculovirus (pVL1393; amplified in Sf9)
# T1 sequence (P01731+Q12884 fused): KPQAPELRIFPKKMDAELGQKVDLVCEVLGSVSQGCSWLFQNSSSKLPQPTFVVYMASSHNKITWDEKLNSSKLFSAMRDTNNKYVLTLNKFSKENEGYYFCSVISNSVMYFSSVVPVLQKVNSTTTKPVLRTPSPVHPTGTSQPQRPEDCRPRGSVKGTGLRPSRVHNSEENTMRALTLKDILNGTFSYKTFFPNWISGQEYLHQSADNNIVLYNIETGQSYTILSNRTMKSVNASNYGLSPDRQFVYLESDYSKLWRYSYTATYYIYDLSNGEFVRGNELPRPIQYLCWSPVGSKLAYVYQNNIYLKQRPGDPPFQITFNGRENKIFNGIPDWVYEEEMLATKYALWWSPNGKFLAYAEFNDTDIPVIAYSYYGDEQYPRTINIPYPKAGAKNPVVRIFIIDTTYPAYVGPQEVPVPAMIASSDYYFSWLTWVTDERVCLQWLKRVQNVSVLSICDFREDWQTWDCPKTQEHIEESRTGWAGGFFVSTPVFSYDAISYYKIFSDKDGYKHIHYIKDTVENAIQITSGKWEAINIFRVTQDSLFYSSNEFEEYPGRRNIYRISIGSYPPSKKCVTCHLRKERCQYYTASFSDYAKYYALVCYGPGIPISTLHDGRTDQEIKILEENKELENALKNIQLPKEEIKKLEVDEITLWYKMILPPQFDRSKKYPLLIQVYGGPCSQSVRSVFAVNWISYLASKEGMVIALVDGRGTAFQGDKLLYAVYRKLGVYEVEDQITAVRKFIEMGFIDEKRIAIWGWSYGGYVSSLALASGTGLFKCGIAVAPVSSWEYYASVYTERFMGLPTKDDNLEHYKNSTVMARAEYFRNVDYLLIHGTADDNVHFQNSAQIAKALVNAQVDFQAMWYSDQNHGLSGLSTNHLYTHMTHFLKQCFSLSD
# Protocol: A soluble recombinant form of FAPα protein was prepared as follows. […] The cDNAs were verified by sequencing and inserted into the pVL1393 vector. […] The culture supernatant of High Five cells infected with recombinant FAPmCD8 baculovirus for four days was collected and cleared by ultracentrifugation. FAPmCD8 fusion protein was purified from such supernatants using an anti-FAPα monoclonal antibody immobilized on activated agarose beads (Pierce Chemical, Indianapolis, Ind., USA). […] The samples were immediately neutralized with a saturated Tris solution (Sigma Chemicals, St. Louis, Mo.) and protein-containing fractions were pooled.
# Doxorubicin-peptide conjugate stock solutions (5 mM) were diluted with Hepes-buffered saline pH 7.4 to a final concentration of 50 to 100 μM. Twenty μl of the resulting solution was mixed with 50 μl of purified FAPmCD8 fusion protein (approximately 20 ng) described above and 30 μl Hepes-buffered saline, pH 7.4. The mixture was allowed to incubate at 37° C. for 1 day and release of free doxorubicin was measured in the HPLC assay described. Areas under each peak were quantified using the software package above and the initial value was set to 100%. The rate of release of free doxorubicin was measured by the appearance of a peak with the same retention time as free doxorubicin under these HPLC conditions. The areas under each peak were used to calculate the relative amounts of free doxorubicin to doxorubicin-peptide conjugate.
# [2] = molecular target: T2, FAPα enzyme derived from membrane extracts of the 293-I/2 transfected cells (Homo sapiens, UniProt Q12884); assay: FAPα-catalyzed cleavage of 4-methoxy-β-napthylamide (MNA)-peptide conjugates, enzyme kinetics; type: biochemical; conditions: release of free MNA, fluorimeter 355 nm/405 nm
# T2 construct: made in house; host or cells: human embryonic kidney 293 cells, clone 293-I/2, membrane extract
# T2 sequence (Q12884 1-760): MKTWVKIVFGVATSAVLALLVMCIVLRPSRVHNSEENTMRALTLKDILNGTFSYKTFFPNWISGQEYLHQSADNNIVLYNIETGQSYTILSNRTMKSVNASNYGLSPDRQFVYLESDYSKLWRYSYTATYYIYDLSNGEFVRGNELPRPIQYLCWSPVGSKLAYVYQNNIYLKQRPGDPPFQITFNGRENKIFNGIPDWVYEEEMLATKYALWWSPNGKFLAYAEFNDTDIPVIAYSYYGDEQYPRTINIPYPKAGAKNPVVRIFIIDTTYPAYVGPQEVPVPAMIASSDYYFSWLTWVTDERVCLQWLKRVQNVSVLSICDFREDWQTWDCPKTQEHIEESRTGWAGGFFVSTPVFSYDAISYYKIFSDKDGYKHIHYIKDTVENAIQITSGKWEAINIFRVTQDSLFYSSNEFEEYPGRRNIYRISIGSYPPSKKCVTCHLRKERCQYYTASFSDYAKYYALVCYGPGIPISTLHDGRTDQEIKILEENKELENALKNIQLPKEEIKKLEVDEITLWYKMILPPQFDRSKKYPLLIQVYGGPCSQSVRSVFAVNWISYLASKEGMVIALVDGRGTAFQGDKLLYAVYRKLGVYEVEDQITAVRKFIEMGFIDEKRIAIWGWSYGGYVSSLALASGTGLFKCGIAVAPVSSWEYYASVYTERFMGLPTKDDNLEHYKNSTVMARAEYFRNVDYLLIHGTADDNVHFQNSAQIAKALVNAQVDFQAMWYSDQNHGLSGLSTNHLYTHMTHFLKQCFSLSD
# Protocol: (§1) Release of free MNA from the peptides was then measured in a Cytofluor fluorimeter (Per-Septive Biosystems, Inc.) using the 355 nm excitation/405 nm emission filter set.
# [3] = tested on: parental HT1080 cell line; conditions: 1 μM conjugate, serum-free medium, 19 hours at 37° C.
# Protocol: (§2) Mammalian cell lines expressing recombinant FAPα were prepared. HT1080 fibrosarcoma cells, widely known and available from the DSMZ (German Collection of Microorganisms and Cell Cultures, Braunschweig, Germany) under the accession number DSMZ ACC 315, were maintained in a DMEM/F12 mix 50:50 containing 10% fetal bovine serum in an atmosphere of 95% air and 5% CO2. HT1080 cells were transfected with FAP.38 vector (WO 97/34927, Scanlan et al., loc. cit.) using the Lipofectin method according to the manufacturer's instructions (Gibco/BRL). Transfectants were selected for resistance to antibiotics (200 μg/ml Geneticin) and thereafter maintained in medium containing Geneticin. Individual colonies of resistant cells were picked, grown to confluence in 10 cm tissue culture petri dishes and tested for FAPα expression in an immunofluorescence assay using the FAPα-specific monoclonal antibody F19, as described (Garin-Chesa et al. (1990) Proc. Natl. Acad. Sci. USA 87(18), 7235-7239).
# (§3) Samples were separated by reversed-phase high performance liquid chromatographic (HPLC) assay that was established to measure cleavage of doxorubicin-peptide conjugates. […] Free doxorubicin and doxorubicin-peptide conjugates were detected by fluorescence (excitation, 475 nm; emission, 585 nm) using a Waters 474 fluorescence detector. […]
# [4] = molecular target: T3, cell-bound FAPα (FAP-expressing cell line HT1080 clone 33) (Homo sapiens, UniProt Q12884); assay: Release of free doxorubicin by cell-bound FAPα, HT1080 clone 33 cells; type: cell-based; conditions: 1 μM conjugate, serum-free medium, 19 hours at 37° C.
# T3 construct: expressed in transfected cells; host or cells: HT1080 fibrosarcoma cells, clone 33
# T3 sequence (Q12884 1-760): T2 sequence (Q12884 1-760)
# Protocol: as §2, §3
# [5] = molecular target: T4, FAPα dimers (Homo sapiens, UniProt Q12884); conditions: membrane overlay assay; cited from earlier work
# T4 sequence (Q12884 1-760): T2 sequence (Q12884 1-760)
# [6] = molecular target: DPP-IV (Homo sapiens, UniProt P27487); assay: Cleavage specificity of MNA-peptide conjugates, DPP-IV; type: biochemical; conditions: release of free MNA
# Sequence of DPP-IV (P27487 whole entry, species assumed): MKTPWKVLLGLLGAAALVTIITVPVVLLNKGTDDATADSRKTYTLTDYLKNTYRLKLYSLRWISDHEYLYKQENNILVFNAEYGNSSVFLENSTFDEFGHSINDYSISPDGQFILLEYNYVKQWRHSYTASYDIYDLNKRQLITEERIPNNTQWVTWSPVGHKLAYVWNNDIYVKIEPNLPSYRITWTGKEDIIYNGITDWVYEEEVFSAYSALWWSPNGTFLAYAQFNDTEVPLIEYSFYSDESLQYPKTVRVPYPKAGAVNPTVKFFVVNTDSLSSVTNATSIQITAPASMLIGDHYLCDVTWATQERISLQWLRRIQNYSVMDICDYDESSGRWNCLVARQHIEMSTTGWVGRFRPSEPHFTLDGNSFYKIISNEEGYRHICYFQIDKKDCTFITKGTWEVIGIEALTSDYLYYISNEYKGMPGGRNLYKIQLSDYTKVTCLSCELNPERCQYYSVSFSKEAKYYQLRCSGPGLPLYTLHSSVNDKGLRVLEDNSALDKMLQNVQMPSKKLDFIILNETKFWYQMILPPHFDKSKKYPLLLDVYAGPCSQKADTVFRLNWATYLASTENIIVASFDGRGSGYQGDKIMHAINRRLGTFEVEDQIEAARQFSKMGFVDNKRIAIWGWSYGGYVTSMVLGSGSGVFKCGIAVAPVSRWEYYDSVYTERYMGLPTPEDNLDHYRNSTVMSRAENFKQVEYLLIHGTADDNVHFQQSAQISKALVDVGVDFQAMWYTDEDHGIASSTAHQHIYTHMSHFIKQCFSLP
# Protocol: as §1
# (§4) Among the-known prolyl-specific serine oligopeptidase family members, the most closely related enzyme to FAPα is DPP-IV. Since active DPP-IV is found in plasma and on many different cell types, optimization of the relative (optional) selectivity of prodrug peptidics for FAPα compared to DPP-IV is necessary to reduce undesirable conversion of the prodrug at sites other than the tumor (e.g., in the plasma). To identify peptides specific for FAPα, cleavage of MNA-coupled peptides by FAPα was compared to the ability of DPP-IV to cleave the same peptide conjugates.
# [7] = molecular target: T5, FAPα (Homo sapiens, UniProt Q12884); assay: Cleavage specificity of MNA-peptide conjugates, FAPα; type: biochemical; conditions: release of free MNA
# T5 sequence (Q12884 1-760): T2 sequence (Q12884 1-760)
# Protocol: as §1, §4
SMILES,Kcat [2] [s⁻¹],Km [2] [µM],further results
"COc1cccc2c1C(=O)c1c(O)c3c(c(O)c1C2=O)CC(O)(C(=O)CO)CC3OC1CC(NC(=O)C2CCCN2C(=O)C(N)C2CCCCC2)C(O)C(C)O1 (stereo not drawn) [H-Chg-, H-Chg-Pro-Dox]",,,Cleavage by FAP [1]: >95%
COc1cc(NC(=O)[C@@H]2CCCN2C(=O)[C@@H](N)CO)cc2ccccc12 [Ser-Pro-MNA],28.3,872,
COc1cc(NC(=O)C2CCCN2C(=O)C(N)CCCCN)cc2ccccc12 (stereo not drawn) [Lys-Pro-MNA],57.1,530,
COc1cc(NC(=O)[C@@H]2CCCN2C(=O)[C@@H](N)CCSC)cc2ccccc12 [Met-Pro-MNA],27.9,127,
"COc1cccc2c1C(=O)c1c(O)c3c(c(O)c1C2=O)C[C@@](O)(C(=O)CO)C[C@@H]3O[C@H]1C[C@H](NC(=O)[C@@H]2CCCN2C(=O)CNC(=O)OCc2ccccc2)[C@H](O)[C@H](C)O1 [ZGP-Dox, N-Cbz-Gly-Pro-Doxorubicin]",,,"conversion of conjugate to free doxorubicin after incubation with purified FAPmCD8 fusion protein ([1]; 37° C., 1 day, approximately 20 ng FAPmCD8, Hepes-buffered saline pH 7.4, HPLC (FIG. 1)): could be converted to free doxorubicin; Cleavage by FAP [1]: >95%; conversion of conjugate to free doxorubicin by parental HT1080 cell line [3]: 9%; conversion of conjugate to free doxorubicin by HT1080 clone 33 [4]: 81%"
COc1cc(NC(=O)[C@@H]2CCCN2C(=O)[C@@H](N)C(C)C)cc2ccccc12 [Val-Pro-MNA],27.7,95,
NCC(=O)N1CCC[C@H]1C(=O)Nc1ccc2c(C(F)(F)F)cc(=O)oc2c1 [Gly-Pro-7-amino-4-trifluoromethyl coumarin] (H-Gly-Pro-{AFC}),,,cleavage by FAPα dimers [5]: able to cleave
C[C@H](N)C(=O)N1CCC[C@H]1C(=O)Nc1ccc2c(C(F)(F)F)cc(=O)oc2c1 [Ala-Pro-7-amino-4-trifluoromethyl coumarin] (H-Ala-Pro-{AFC}),,,cleavage by FAPα dimers [5]: able to cleave
COc1cc(NC(=O)[C@@H]2CCCN2C(=O)[C@@H](N)CCCCO)cc2ccccc12 [Hyn-Pro-MNA],27.4,69,
COc1cc(NC(=O)[C@@H]2CCCN2C(=O)[C@@H](N)CCCNC(=N)N)cc2ccccc12 [Arg-Pro-MNA],50.6,278,
CC[C@H](C)[C@H](N)C(=O)N1CCC[C@H]1C(=O)Nc1cc(OC)c2ccccc2c1 [Ile-Pro-MNA],12.6,43,
COc1cc(NC(=O)C2CCCN2C(=O)C(C)N)cc2ccccc12 (stereo not drawn) [Ala-Pro-MNA],35.7,267,Cleavage specificity DPP IV [6]: +; Cleavage specificity FAP [7]: +
COc1cc(NC(=O)C2CCCN2C(=O)CNC(=O)OCc2ccccc2)cc2ccccc12 (stereo not drawn) [Z-Gly-Pro-MNA],,,Cleavage specificity DPP IV [6]: −; Cleavage specificity FAP [7]: +
COc1cc(NC(=O)[C@@H]2CCCN2C(=O)[C@@H](N)CC[S+](C)[O-])cc2ccccc12 (stereo partly drawn) [Met(O)-Pro-MNA],26.9,378,
NCCCC[C@H](N)C(=O)N1CCC[C@H]1C(=O)Nc1ccc2c(C(F)(F)F)cc(=O)oc2c1 [Lys-Pro-7-amino-4-trifluoromethyl coumarin] (H-Lys-Pro-{AFC}),,,cleavage by FAPα dimers [5]: able to cleave
"COc1cccc2c1C(=O)c1c(O)c3c(c(O)c1C2=O)CC(O)(C(=O)CO)CC3OC1CC(NC(=O)C2CCCN2C(=O)CNC(=O)C(C)NC(=O)C2CCCN2C(=O)OCc2ccccc2)C(O)C(C)O1 (stereo not drawn) [ZPAGP-Dox, N-Cbz-Pro-Ala-Gly-Pro-Doxorubicin]",,,Cleavage by FAP [1]: >95%; conversion of conjugate to free doxorubicin by parental HT1080 cell line [3]: Little or no detectable conversion; conversion of conjugate to free doxorubicin by HT1080 clone 33 [4]: 43%
COc1cc(NC(=O)[C@@H]2CCCN2C(=O)[C@@H]2C[C@@H](O)CN2)cc2ccccc12 [trans-Hyp-Pro-MNA],37.9,254,
"COc1cccc2c1C(=O)c1c(O)c3c(c(O)c1C2=O)CC(O)(C(=O)CO)CC3OC1CC(NC(=O)C2CCCN2C(=O)CNC(=O)C(C)NC(=O)C2CCCN2)C(O)C(C)O1 (stereo not drawn) [H-Pro-Ala-Gly-, H-Pro-Ala-Gly-Pro-Dox]",,,Cleavage by FAP [1]: ca. 11%
"COc1cccc2c1C(=O)c1c(O)c3c(c(O)c1C2=O)CC(O)(C(=O)CO)CC3OC1CC(NC(=O)C2CCCN2C(=O)CNC(=O)C(C)NC(=O)C2CCCN2C(=O)OCC2c3ccccc3-c3ccccc32)C(O)C(C)O1 (stereo not drawn) [Fmoc-Pro-Ala-Gly-, Fmoc-Pro-Ala-Gly-Pro-Dox]",,,Cleavage by FAP [1]: >95%
"COc1cc(NC(=O)[C@@H]2CCCN2C(=O)[C@@H]2CCCN2)cc2ccccc12 [Pro-Pro-MNA, Pro-Pro-4-methoxy-β-naphthylamide]",49.5,154,
COc1cc(NC(=O)C2CCCN2C(=O)CNC(=O)C(C)NC(=O)C2CCCN2C(=O)OCc2ccccc2)cc2ccccc12 (stereo not drawn) [Z-Pro-Ala-Gly-Pro-MNA] (Cbz-PAGP-{NH(4-MeO-2-naphthyl)}; configuration not given here),,,Cleavage specificity DPP IV [6]: −; Cleavage specificity FAP [7]: +
COc1cc(NC(=O)[C@@H]2CCCN2C(=O)[C@@H](N)C2CCCCC2)cc2ccccc12 [Chg-Pro-MNA],53.7,75,
COc1cc(NC(=O)[C@@H]2CCCN2C(=O)[C@@H](N)CCC(N)=O)cc2ccccc12 [Gln-Pro-MNA],40.5,273,
